The source made the active and inactive calls.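 How the source made its calls: active means compounds giving half or more protection of infected cells from virus-caused growth loss, again on retest; inactive means the rest.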
Test system: CEM cells HIV-1 protection, formazan growth assay
Test: NCI AIDS Antiviral Assay
Conditions: for IC50: measured here: growth of uninfected CEM cells
How it was run: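 Screen of anti-HIV-1 activity in human CEM cells using a formazan-based growth measurement at five drug concentrations. Hits with 50% or greater protection were repeated, and confirmation required reproducible complete protection.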

## Cc1ccc(O)c(C(=O)CCCC(=O)c2cc(C)ccc2O)c1
  EC50: > 12 µM
  IC50: > 12 µM

## NC(=O)C12C3C4C1C1C2C3C41C(N)=O (configuration not stated)
  EC50: > 70.8 µM
  IC50: > 70.8 µM

## CCCCCCCCCCCC(=O)OC[C@@H](C[As](=O)(O)O)OC(=O)CCCCCCCCCCC
  EC50: > 200 µM
  IC50: 3.89 µM

## C=C=C[P+](c1ccccc1)(c1ccccc1)c1ccccc1
  EC50: > 155 µM
  IC50: 3.24 µM

## CCCCSC1=NCCCS1
  EC50: > 275 µM
  IC50: > 275 µM

## CC[C@]1(O)C[C@H]2CN(CCc3c([nH]c4ccccc34)[C@@](C(=O)OC)(c3cc4c(cc3OC)N(C=O)[C@H]3[C@@](O)(C(=O)OC)[C@H](OC(C)=O)[C@]5(CC)C=CCN6CC[C@]43[C@@H]65)C2)C1
  EC50: > 0.0302 µM
  IC50: 0.000525 µM

## COc1cc2c(c(OC)c1OC)-c1ccc(=O)c(OC)cc1C(NC(C)=O)CC2 (configuration not stated)
  outcome: inactive

## COc1ccc(-n2c(C)nc3ccc(NC4OC(CO)C(O)C(O)C4O)cc3c2=O)cc1 (configuration not stated)
  EC50: > 200 µM
  IC50: > 200 µM

## CC(/C=N/NC1=NCCCN1)=N\NC1=NCCCN1
  EC50: > 200 µM
  IC50: > 200 µM

## CCOc1nc2sc3c(c2c(=O)n1CCSSCCn1c(OCC)nc2sc4c(c2c1=O)CCCC4)CCCC3
  EC50: > 100 µM
  IC50: > 100 µM

## CCCCCCCCCCC(=O)CCCCCCC(=O)O
  outcome: inactive

## CS(=O)(=O)N/N=C/CN1C(=O)c2ccccc2C1=O
  EC50: > 891 µM
  IC50: > 891 µM

## c1ccc(Cc2cccc3cc(-c4ccc(-c5ccccc5)cc4)[nH]c23)cc1
  EC50: > 200 µM
  IC50: 166 µM

## O=c1c2ccc(Cl)cc2nc2n1OCC2
  EC50: > 132 µM
  IC50: > 132 µM

## NS(=O)(=O)c1ccc(CNC(=O)c2ccccc2SC(=O)CCCCC[n+]2ccccc2)cc1
  EC50: 2.14 µM
  IC50: 39.8 µM

## CC(=O)N(C(C)=O)c1c(N)n(C)c(=O)[nH]c1=O
  outcome: inactive

## CCCCSCCC(N)P(=O)(O)O (configuration not stated)
  EC50: > 200 µM
  IC50: > 200 µM

## CN(C)CCCN=c1c2ccccc2n(O)c2ccccc12
  EC50: > 200 µM
  IC50: 8.13 µM

## O=c1[nH]n(CCc2ccccc2CCl)c2ccc([N+](=O)[O-])cc12
  EC50: > 200 µM
  IC50: 50.1 µM

## O=C(CC/C(C/C(=N/O)c1ccc(F)cc1)=N/O)N(Cc1ccccc1)Cc1ccccc1
  EC50: > 112 µM
  IC50: > 112 µM

## CC1OC(CC(=O)O)CC2=C1C(=O)c1c(O)cccc1C2=O (configuration not stated)
  EC50: > 120 µM
  IC50: 0.0447 µM

## COC(=O)C(/C(=N\NC(N)=S)C(=O)Nc1ccccc1[N+](=O)[O-])c1cnc2ccccc2n1 (configuration not stated)
  EC50: > 145 µM
  IC50: > 145 µM

## COC(=O)C1(C(=O)OC)CC2c3c(c4ccccc4n3C)CC(C1=O)N2Cc1ccccc1 (configuration not stated)
  outcome: inactive

## O=C1OC[C@@H]2[C@@H](O)CCCCCN12
  EC50: > 200 µM
  IC50: > 200 µM

## O=C1CN(C=C(C(=O)c2ccccc2)C(=O)c2ccccc2)C(=S)N1
  outcome: inactive

## O=C(CCCl)NNC1=NCCCCN1
  EC50: > 200 µM
  IC50: > 200 µM

## O=C(NO)C(=O)Nc1cc(Cl)ccc1Cl
  EC50: > 145 µM
  IC50: 66.1 µM

## CC(C)NC(=O)OCc1c(COC(=O)NC(C)C)n(C)c2c1ccc1sccc12
  EC50: > 200 µM
  IC50: 2.14 µM

## COc1cc(N(CCC#N)CCC#N)ccc1/C(N=Nc1ccc(C)cc1)=N/NC(=O)c1cc(Br)ccc1O
  EC50: > 200 µM
  IC50: 12.6 µM

## COC(=O)c1c(C)cccc1C1CN=NC12Cc1ccccc1C2=O (configuration not stated)
  EC50: 27.5 µM
  IC50: 102 µM

## COc1ccc(N2C(=O)CC(c3c[nH]c4ccccc34)C2=O)cc1 (configuration not stated)
  EC50: > 200 µM
  IC50: 182 µM

## CC(C)/C(Cl)=N\OC(=O)Nc1ccc(F)cc1F
  EC50: > 200 µM
  IC50: 7.24 µM

## COC12CC(=O)C(C(C)=O)=C(O)C1(C)c1c(OC(C)=O)c(C)c(O)c(C(C)=O)c1O2 (configuration not stated)
  EC50: > 603 µM
  IC50: 10.7 µM

## Nc1ccccc1/C=C/c1ccnc2ccccc12
  EC50: 0.0631 µM
  IC50: 40.7 µM

## O=[N+]([O-])/C(Cl)=C(\Nc1ccccc1)C(Cl)=C(Cl)Cl
  EC50: > 200 µM
  IC50: 32.4 µM

## Clc1ccc(/C=C/c2nc3ccccc3s2)cc1Cl
  EC50: > 200 µM
  IC50: 83.2 µM

## O=c1[nH]c2nc3ccccc3c(=O)n2/c1=C/c1ccccc1
  EC50: > 200 µM
  IC50: 9.12 µM

## CCCCCCC[CH2][Sn]1([CH2]CCCCCCC)[O]C(=O)c2cccnc2[S]1
  EC50: 0.794 µM
  IC50: 91.2 µM

## CN(C)CCNc1ccc(NCC[N+](C)(C)Cc2ccc([N+](=O)[O-])cc2)c2c1C(=O)c1c(O)ccc(O)c1C2=O
  EC50: > 20 µM
  IC50: 0.891 µM

## CC1(C)C(=O)N2C(=O)CC(=O)N2C1=O
  EC50: > 457 µM
  IC50: > 457 µM

## C1=C[C@]2(CCC13OCCO3)COc1ccccc12
  EC50: > 200 µM
  IC50: 18.6 µM

## O=C1c2cc3c(cc2CC12Cc1ccc4c(c1C2=O)CCC4)CCCC3 (configuration not stated)
  EC50: > 200 µM
  IC50: > 200 µM

## O=S(=O)(SC1=NCCN1)c1cccc2ccccc12
  EC50: > 81.3 µM
  IC50: 37.2 µM

## COC(=O)C1=COC2OC3C(C(C)O)C(=O)OC34C=CC1C24 (configuration not stated)
  EC50: > 589 µM
  IC50: 63.1 µM

## Cc1cc(N(CCC#N)CCC#N)ccc1/C(N=Nc1ccc(Cl)cc1)=N\NC(=O)c1cc(Cl)ccc1O
  EC50: > 200 µM
  IC50: 102 µM

## O=C1C(=O)N(c2ccc(Cl)cc2)C(=O)C(=O)C1c1nc2ccccc2o1
  outcome: inactive

## Cc1cc2c3c(nc2c2cc[nH]c(C)c12)CCCC3
  EC50: > 200 µM
  IC50: 3.63 µM

## CC1(C)Oc2ccccc2[N+]([O-])=C1c1ccccc1
  EC50: > 141 µM
  IC50: > 141 µM

## O=[N+]([O-])C1=C(c2ccccc2)SC=C(c2ccccc2)S1
  EC50: > 200 µM
  IC50: 9.77 µM

## N#C/C(=C(\c1ccccc1)c1ccccn1)c1ccccc1
  EC50: > 20 µM
  IC50: 1.1 µM

## CCOc1ccc(N=Cc2ccc3cc(C)ccc3n2)cc1
  outcome: inactive

## CC(=O)Nc1cccc(N2C(=O)/C(=C\c3cccc(Oc4ccccc4)c3)SC2c2ccccc2)c1 (configuration not stated)
  EC50: > 200 µM
  IC50: 30.9 µM

## Cc1cc(-c2ccco2)c(C#N)c(=S)n1C1OC(CO)C(O)C(O)C1O (configuration not stated)
  EC50: > 200 µM
  IC50: > 200 µM

## CC1=C(Br)C(c2ccccc2)=Nc2ccccc2N1
  EC50: > 200 µM
  IC50: 33.1 µM

## COc1ccc2c(-c3ccc(O)cc3)c(Oc3ccc(Cl)cc3)c(=O)oc2c1
  EC50: > 200 µM
  IC50: 19.1 µM

## c1ccc(COc2ncccc2C2SCCCS2)cc1
  EC50: > 200 µM
  IC50: > 200 µM

## CCCCCCCC(=O)OCC1OC(n2cc(F)c(=O)[nH]c2=O)C(N)C(OC(=O)CCCCCCC)C1O (configuration not stated)
  EC50: > 47.9 µM
  IC50: 38.9 µM

## CC(=O)C1=C(O)C(c2ccccc2)c2ccccc21 (configuration not stated)
  EC50: > 389 µM
  IC50: 97.7 µM

## CC(c1ccccc1)N1CC(C)(c2ccccc2)N(O)C(c2ccccc2)C1C (configuration not stated)
  EC50: > 18.6 µM
  IC50: > 18.6 µM

## Cc1cccc(N2C(=O)C3c4[nH]c5ccccc5c4C4CCC(C(C)(C)C)CC4C3C2=O)c1 (configuration not stated)
  EC50: > 200 µM
  IC50: 38.9 µM

## CC(=O)/C=C/c1cccc(N=S)c1
  EC50: > 2.82 µM
  IC50: > 2.82 µM

## O=c1c2cc3c(=O)n(-c4ccccc4Cl)c(=O)c3cc2c(=O)n1-c1ccccc1Cl
  EC50: > 40.7 µM
  IC50: > 40.7 µM

## N[C@@H](CSSc1ccccc1C(=O)O)C(=O)O
  EC50: > 200 µM
  IC50: > 200 µM

## O=C(Nc1nc2ccc([N+](=O)[O-])cc2s1)C(=O)C(C(=O)c1ccccc1F)C1OC(=O)c2ccccc21 (configuration not stated)
  EC50: > 132 µM
  IC50: 18.2 µM

## COc1ccc(/C=C2\CCc3ccccc3C2=O)cc1
  EC50: > 19.5 µM
  IC50: 12.6 µM

## CC1CN=C(N(C)C(=O)Nc2ccc(Cl)c(Cl)c2)S1 (configuration not stated)
  EC50: > 200 µM
  IC50: 37.2 µM

## COC1OC(C(C)Br)C2OC(C)(C)OC12 (configuration not stated)
  EC50: > 200 µM
  IC50: > 200 µM

## Cc1cn(C2CC(n3ncnn3)C(CO)O2)c(=O)[nH]c1=O (configuration not stated)
  outcome: inactive

## O=C(O)[C@@H]1CSC(C(O)C(O)C(O)CO)N1 (some centres not stated)
  EC50: > 355 µM
  IC50: > 355 µM

## Cc1ccc(C2=C(c3ccccc3)C(Br)(c3ccccc3)C(c3ccccc3)=C2c2ccc(C)cc2)cc1
  EC50: > 26.9 µM
  IC50: > 26.9 µM

## COc1ccc(/C(=C\c2cc(OC)c(OC)cc2[N+](=O)[O-])C(=O)O)cc1
  outcome: inactive

## CCN(CC)CCSc1c2ccccc2nc2cc(NCC(=O)Nc3ccccc3-c3ccccc3NC(=O)CNc3ccc4c(SCCN(CC)CC)c5ccccc5nc4c3)ccc12
  EC50: > 33.1 µM
  IC50: > 33.1 µM

## CCC1(CC)C(=O)N(C(=O)c2ccc(C)cc2)N(C(=O)c2ccc(C)cc2)C1=O
  EC50: > 200 µM
  IC50: 20.4 µM

## [N-]=[N+]=Nc1c(C=O)c(=O)n2c3c(cccc13)CCC2
  EC50: > 200 µM
  IC50: 4.27 µM

## CC1(C)CC(=O)c2c(nc(SSc3nc4c(c(-c5ccc(Br)cc5)c3C#N)C(=O)CC(C)(C)C4)c(C#N)c2-c2ccc(Br)cc2)C1
  EC50: 18.6 µM
  IC50: 162 µM

## NC(N)=N/N=C(/c1nc2ccc([N+](=O)[O-])cc2[nH]c1=O)C(O)c1ccco1 (configuration not stated)
  EC50: > 251 µM
  IC50: 141 µM

## O=C1c2ccccc2C(=O)N1CC(O)COc1cccc2ccccc12 (configuration not stated)
  EC50: > 200 µM
  IC50: > 200 µM

## COC(=O)C(CCSC)NC(=O)Cc1ccc(C(=O)c2ccccc2)cc1 (configuration not stated)
  EC50: > 200 µM
  IC50: 34.7 µM

## COc1cc(Br)c(CC2=NCCc3cc(OC)c(OC)cc32)cc1OC
  outcome: inactive

## COc1ccc2c(=O)c3ccoc3[nH]c2c1
  EC50: > 100 µM
  IC50: > 100 µM

## CCN(CC)C(=S)/N=C(\SC(=S)N(CC)CC)c1ccccc1
  EC50: > 132 µM
  IC50: 52.5 µM

## NC(CSS(=O)(=O)O)=NCCSS(=O)(=O)O
  EC50: > 200 µM
  IC50: 110 µM

## O=[N+]([O-])c1ncn(S(=O)(=O)c2cccc3cccnc23)n1
  EC50: > 200 µM
  IC50: > 200 µM

## COC(=O)c1[nH]cnc1O
  EC50: > 200 µM
  IC50: > 200 µM

## Cc1cc(=O)[nH]c(NN2C(Cl)C(=O)C2c2ccc(O)cc2)n1 (configuration not stated)
  EC50: > 42.7 µM
  IC50: 6.76 µM

## CCCCCC(/C=C/[C@@H]1[C@H]2CC(=O)O[C@H]2C[C@H]1N1CCOCC1)OC1CCCO1 (some centres not stated)
  EC50: > 316 µM
  IC50: > 316 µM

## CSC(C)CS(=O)(=O)O (configuration not stated)
  EC50: > 200 µM
  IC50: > 200 µM

## OCC[N+]12CCCN1CCC2
  EC50: > 1050 µM
  IC50: > 1050 µM

## CC(=O)OC1C[C@@]2(C)C(CC[C@@H]2C(C)=O)[C@@H]2CC=C3C[C@@H](O)CC[C@]3(C)C12 (some centres not stated)
  outcome: inactive

— PubChem BioAssay AID179 (DTP/NCI, 2004)
